What was measured:
[1] = target: T1, human recombinant C-terminal His-tagged LDHA (Homo sapiens, UniProt P00338); assay: Human LDHA enzyme assay; format: biochemical; conditions: 50 μM pyruvate, 50 μM NADH, no HSA
T1 construct: His (C)
Procedure: (§1) Compounds were dissolved in DMSO and preincubated with human recombinant C-terminal His-tagged LDHA (0.070 μg/mL) for 10 min at room temperature in assay buffer consisting 50 mM Tris, pH 7.5 and 100 mM NaCl in black walled, clear bottom, non-binding 96-well plates. Equal volumes of substrate solution containing 100 μM of pyruvate and 100 μM of NADH in assay buffer was added to each well (final concentration 0.035 μg/mL enzyme, 50 μM pyruvate, 50 μM NADH, and 1% DMSO). For human serum albumin (HSA) shift assay, the compounds were preincubated with the enzyme in assay buffer containing 20% HSA before substrate addition (final concentration 10% HSA). The reaction was monitored at 340 nm on a plate reader (Molecular Devices) in kinetic mode for 15 min. The rate of the reaction was determined by plotting absorbance vs time.

[2] = target: T1, human recombinant C-terminal His-tagged LDHA; assay: Human LDHA enzyme assay, human serum albumin (HSA) shift; format: biochemical; conditions: final concentration 10% HSA
Procedure: as §1

[3] = tested on: fresh primary mouse hepatocytes; assay: Primary mouse hepatocyte assay (lactate production); format: cell-based
Procedure: Compounds were evaluated in an ex vivo assay consisting of fresh primary mouse hepatocytes. Hepatocytes were isolated from wild type mice (C57BL/6NCrl from Charles River Labs) using a two-step collagenase perfusion technique which involves a sequential perfusion of anesthetized mice with Hanks' balanced salt solution and collagenase. Following isolation, viable wild type hepatocytes (0.1 M cells/well) were incubated with test compound in presence of pyruvate and compound potency was evaluated by measuring the lactate produced by the cells using liquid chromatography coupled to mass spectrometry. Chromatographic separation was achieved on an XDB-C18 4.6×50 mm column (Agilent, Cat #927975-902) at a flow rate of 1 mL/min Mobile phase A consisted of 0.1% formic acid in water and mobile phase B consisted of acetonitrile. A gradient program was initiated starting at 5% B which was held for 1 minutes, then ramped from 5% to 95% B over 1 minute. After holding at 95% B for 1 minute, the program changed back to 5% B. The column was equilibrated with 5% B for […] before the next injection. The mass spectrometer was operated in negative mode with electrospray ionization. The following transition along with their collision energy (CE) were used: 89→43 (CE: −16 V) for lactate and 92→45 (CE: −16 V) for ^13C3-Lactate (internal standard).

[4] = Liver-targeted tissue distribution profile study in rats; format: in vivo, Sprague Dawley rats; conditions: rat, single 10 mg/kg PO
Procedure: Plasma and liver (target organ) concentrations of test compounds were determined in rats following a single per os (PO) administration of the test compounds. Male Sprague Dawley rats (6-8 weeks of age, Charles River Labs) were fasted overnight and a single dose of test compounds (10 mg/kg; as a suspension in 0.5% methyl cellulose) was administered by PO gavage. Rats were then sacrificed at 4 and 24 h after administration of the test compounds, and plasma and liver tissue samples were collected. Liver tissue samples were homogenized in 5 volumes of water:acetonitrile (50/50; v/v) mixture using a bead mill homogenizer. Plasma and liver homogenate samples were processed by protein precipitation using acetonitrile and the concentrations of the test compounds were determined by liquid chromatography-tandem mass spectrometry (SciEx triple quad 5500+ with Exion UPLC).
Liver and plasma exposures at the 4 h and 24 h timepoints for the various compounds are described in Table 5 below. Measured compound concentrations are as follows: ++++>10 μM; 10 μM≥+++>5 μM; 5 μM≥++>1 μM; 1 μM≥+>0.25 μM; and 0.25 μM≥−.

[5] = Run at 0.4M cells/well concentration of hepatocytes

SMILES | IC50 [1] | IC50 [2] | Measured Compound Concentrations Liver - 4 h [4] | Measured Compound Concentrations Liver - 24 h [4] | Measured Compound Concentrations Plasma - 4 h [4] | Measured Compound Concentrations Plasma - 24 h [4] | IC50 ([3]; 0.1 M cells/well) | IC50 [3, 5]
NS(=O)(=O)c1ccc(Cc2c(-c3ccc(Cl)cc3)nn(-c3nc(C(=O)O)cs3)c2CC2CC2)cc1F [Example 16, 2-(3-(4-chlorophenyl)-5-(cyclopropylmethyl)-4-(3-fluoro-4-sulfamoylbenzyl)-1H-pyrazol-1-yl)thiazole-4-carboxylic acid] | < 0.001 µM | 0.01 to 0.1 µM | ++ (5 μM≥++>1 μM) | − (0.25 μM≥−) | − (0.25 μM≥−) | − (0.25 μM≥−) |  | < 0.1 µM
NS(=O)(=O)c1ccc(Cc2c(-c3ccc(F)c(Cl)c3)nn(-c3nc(C(=O)O)cs3)c2CC2CC2)cc1F [Example 8, 2-(3-(3-Chloro-4-fluorophenyl)-5-(cyclopropylmethyl)-4-(3-fluoro-4-sulfamoylbenzyl)-1H-pyrazol-1-yl)thiazole-4-carboxylic acid] | < 0.001 µM | 0.001 to 0.01 µM | +++ (10 μM≥+++>5 μM) | − (0.25 μM≥−) | − (0.25 μM≥−) | − (0.25 μM≥−) |  | 0.1 to 0.25 µM
COc1cc(F)cc(-c2nn(-c3nc(C(=O)O)cs3)c(CC3CC3)c2Cc2ccc(S(N)(=O)=O)c(F)c2)c1 [Example 24, 2-(5-(cyclopropylmethyl)-4-(3-fluoro-4-sulfamoylbenzyl)-3-(3-fluoro-5-methoxyphenyl)-1H-pyrazol-1-yl)thiazole-4-carboxylic acid] | 0.001 to 0.01 µM | 0.001 to 0.01 µM |  |  |  |  | < 0.1 µM | 
NS(=O)(=O)c1ccc(Cc2c(-c3cccc(F)c3)nn(-c3nc(C(=O)O)cs3)c2CC2CC2)cc1F [Example 14, 2-(5-(cyclopropylmethyl)-4-(3-fluoro-4-sulfamoylbenzyl)-3-(3-fluorophenyl)-1H-pyrazol-1-yl)thiazole-4-carboxylic acid] | < 0.001 µM | 0.001 to 0.01 µM | ++++ (++++>10 μM) | + (1 μM≥+>0.25 μM) | − (0.25 μM≥−) | − (0.25 μM≥−) |  | < 0.1 µM
NS(=O)(=O)c1ccc(Cc2c(-c3ccc(F)cc3)nn(-c3nc(C(=O)O)co3)c2CC2CC2)cc1F [Example 9, 2-(5-(Cyclopropylmethyl)-4-(3-fluoro-4-sulfamoylbenzyl)-3-(4-fluorophenyl)-1H-pyrazol-1-yl)oxazole-4-carboxylic acid] | < 0.001 µM | 0.001 to 0.01 µM | ++ (5 μM≥++>1 μM) | − (0.25 μM≥−) | − (0.25 μM≥−) | − (0.25 μM≥−) |  | 0.1 to 0.25 µM
NS(=O)(=O)c1ccc(Cc2c(-c3ccccc3F)nn(-c3nc(C(=O)O)cs3)c2CC2CC2)cc1F [Example 25] | < 0.001 µM | 0.01 to 0.1 µM | +++ (10 μM≥+++>5 μM) | − (0.25 μM≥−) | − (0.25 μM≥−) | − (0.25 μM≥−) | 0.1 to 0.25 µM | 
COc1cc(-c2nn(-c3nc(C(=O)O)cs3)c(CC3CC3)c2Cc2ccc(S(N)(=O)=O)c(F)c2)ccc1C#N [Example 23, 2-(3-(4-cyano-3-methoxyphenyl)-5-(cyclopropylmethyl)-4-(3-fluoro-4-sulfamoylbenzyl)-1H-pyrazol-1-yl)thiazole-4-carboxylic acid] | < 0.001 µM | 0.001 to 0.01 µM |  |  |  |  | < 0.1 µM | 

Second part, led by results:

IC50 [1] | IC50 [2] | Measured Compound Concentrations Liver - 4 h [4] | Measured Compound Concentrations Liver - 24 h [4] | Measured Compound Concentrations Plasma - 4 h [4] | Measured Compound Concentrations Plasma - 24 h [4] | SMILES | IC50 ([3]; 0.1 M cells/well) | IC50 [3, 5]
< 0.001 µM | 0.01 to 0.1 µM | ++ (5 μM≥++>1 μM) | − (0.25 μM≥−) | − (0.25 μM≥−) | − (0.25 μM≥−) | NS(=O)(=O)c1ccc(Cc2c(-c3ccc(C(F)F)cc3)nn(-c3nc(C(=O)O)cs3)c2CC2CC2)cc1F [Example 21, 2-(5-(cyclopropylmethyl)-3-(4-(difluoromethyl)phenyl)-4-(3-fluoro-4-sulfamoylbenzyl)-1H-pyrazol-1-yl)thiazole-4-carboxylic acid] | < 0.1 µM | 
< 0.001 µM | 0.001 to 0.01 µM |  |  |  |  | NS(=O)(=O)c1c(F)cc(Cc2c(-c3ccc(F)cc3)nn(-c3nc(C(=O)O)cs3)c2CC2CC2)cc1F [Example 27, 2-(5-(Cyclopropylmethyl)-4-(3,5-difluoro-4-sulfamoylbenzyl)-3-(4-fluorophenyl)-1H-pyrazol-1-yl)thiazole-4-carboxylic acid] | 0.1 to 0.25 µM | 
< 0.001 µM | 0.001 to 0.01 µM | ++++ (++++>10 μM) | + (1 μM≥+>0.25 μM) | − (0.25 μM≥−) | − (0.25 μM≥−) | NS(=O)(=O)c1ccc(Cc2c(-c3cc(F)cc(F)c3)nn(-c3nc(C(=O)O)cs3)c2CC2CC2)cc1F [Example 15, 2-(5-(cyclopropylmethyl)-3-(3,5-difluorophenyl)-4-(3-fluoro-4-sulfamoylbenzyl)-1H-pyrazol-1-yl)thiazole-4-carboxylic acid] |  | < 0.1 µM
< 0.001 µM | 0.001 to 0.01 µM | +++ (10 μM≥+++>5 μM) | − (0.25 μM≥−) | − (0.25 μM≥−) | − (0.25 μM≥−) | NS(=O)(=O)c1ccc(Cc2c(-c3cccc(Cl)c3)nn(-c3nc(C(=O)O)cs3)c2CC2CC2)cc1F [Example 17, 2-(3-(3-chlorophenyl)-5-(cyclopropylmethyl)-4-(3-fluoro-4-sulfamoylbenzyl)-1H-pyrazol-1-yl)thiazole-4-carboxylic acid] | < 0.1 µM | 
< 0.001 µM | 0.001 to 0.01 µM | ++++ (++++>10 μM) | − (0.25 μM≥−) | − (0.25 μM≥−) | − (0.25 μM≥−) | NS(=O)(=O)c1ccc(Cc2c(-c3ccccc3)nn(-c3nc(C(=O)O)cs3)c2CC2CC2)cc1F [Example 20, 2-(5-(cyclopropylmethyl)-4-(3-fluoro-4-sulfamoylbenzyl)-3-phenyl-1H-pyrazol-1-yl)thiazole-4-carboxylic acid] | < 0.1 µM | 
< 0.001 µM | 0.001 to 0.01 µM | +++ (10 μM≥+++>5 μM) | − (0.25 μM≥−) | − (0.25 μM≥−) | − (0.25 μM≥−) | NS(=O)(=O)c1ccc(Cc2c(-c3ccc(F)c(F)c3)nn(-c3nc(C(=O)O)cs3)c2CC2CC2)cc1F [Example 12, 2-(5-(Cyclopropylmethyl)-3-(3,4-difluorophenyl)-4-(3-fluoro-4-sulfamoylbenzyl)-1H-pyrazol-1-yl)thiazole-4-carboxylic acid] | < 0.1 µM | 
< 0.001 µM | 0.001 to 0.01 µM | +++ (10 μM≥+++>5 μM) | − (0.25 μM≥−) | − (0.25 μM≥−) | − (0.25 μM≥−) | NS(=O)(=O)c1ccc(Cc2c(-c3cc(F)c(F)c(F)c3)nn(-c3nc(C(=O)O)cs3)c2CC2CC2)cc1F [Example 28, 2-(5-(Cyclopropylmethyl)-4-(3-fluoro-4-sulfamoylbenzyl)-3-(3,4,5-trifluorophenyl)-1H-pyrazol-1-yl)thiazole-4-carboxylic acid] | < 0.1 µM | 

Reference: patent US20230183228A1, “SUBSTITUTED PYRAZOLYL COMPOUNDS AND METHODS OF USE THEREOF” (Chinook Therapeutics Canada, Inc., priority 2020, published 2023)
